Assay [1] has as its target Ba/F3-EGFR (d746-750/T790M/C797S) (Homo sapiens, UniProt P00533, DEL746-750/T790M/C797S, cells depend on it). The experiment in a line: Growth inhibition of cell line expressing EGFR (d746-750/T790M/C797S). The class given is cell-based, mouse. To be noted: read-out: BaF3_EGFR (d746-750/T790M/C797S) IC50 value. An excerpt:
(§1) Test for inhibitory activity against the growth of cell lines expressing wild-type and mutated EGFRs (in vitro)
(§2) (1) Mouse cell line Ba/F3-EGFR (d746-750/T790M/C797S) transfected with and stably expressing EGFR (d746-750/T790M/C797S), mouse cell Ba/F3-EGFR (L858R/T790M/C797S) transfected with and stably expressing EGFR (L858R/T790M/C797S), and mouse cell line Ba/F3-EGFR (WT) transfected with and stably expressing wild-type EGFR were each suspended in RPMI-1640 cell culture medium (RPMI-1640, 10% FBS, 100 unit/ml penicillin, 0.1 mg/ml streptomycin). In the case of the mouse cell line Ba/F3-EGFR (WT), RPMI-1640 cell culture medium containing EGF at a final concentration of 50 ng/ml was used to suspend this cell line. It should be noted that the mouse cell line Ba/F3-EGFR (d746-750/T790M/C797S) transfected with and stably expressing EGFR (d746-750/T790M/C797S), the mouse cell line Ba/F3-EGFR (L858R/T790M/C797S) transfected with and stably expressing EGFR (L858R/T790M/C797S) and the mouse cell line Ba/F3-EGFR (WT) transfected with and stably expressing wild-type EGFR were prepared by using nucleotide sequences encoding the proteins of SEQ ID NOs: 1 and 2 in accordance with Test Example 1 in WO2018/079310, These cell suspensions were seeded in wells of 96-well flat -bottomed plates. The compounds of the present invention were dissolved in DMSO, and serial dilutions of these test compounds were prepared with DMSO (1000-fold of the final concentration). Each test compound solution in DMSO or DMSO alone was diluted with RPMI-1640 cell culture medium for each cell line, and this dilution was added to wells of the cell culture plate such that the final concentration of DMSO was 0.1%, followed by culture at 37° C. for 3 days in a 5% carbon dioxide gas-containing incubator. Before and after addition of each test compound solution in DMSO, the number of cells was counted using the CellTiter-Glo® system (Promega) on the basis of the protocol recommended by Promega.
(§3) In each cell line, the rate of cell growth inhibition was calculated according to the equation shown below in wells to which each test compound was added at different concentrations. Moreover, the inhibition rate at each concentration was plotted for each test compound, and the concentration of each test compound required to give 50% cell survival rate, i.e., IC50 (nM) was determined by curve fitting software XLfit (IDBS).
(§4) Cell survival rate (%)=T/C×100
(§5) T: emission intensity in a well cultured for 3 days after addition of a test compound solution
(§6) C: emission intensity in a well cultured for 3 days after addition of DMSO
(§7) In accordance with the same procedures as shown in Test Example 2, the compounds of the present invention were tested for their inhibitory activity against the growth of the cell hoes expressing wild-type and mutated EGFRs.

For assay [2], the target named is T1, human EGFR (d746-750/T790M/C797S) (Homo sapiens, UniProt P00533, C797S/DEL746-750/T790M).
T1 construct: made in house; host or cells: Sf9 insect cells, baculovirus
The experiment in a line: Inhibitory activity against EGFR (d746-750/T790M/C797S) kinase. The class given is biochemical. In outline:
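GST-fused cytoplasmic domain of human EGFR d746-750/T790M/C797S (Sf9-expressed) was incubated with 250 nM biotinylated peptide, 6 μM ATP, 10 mM MgCl2 and 10 mM MnCl2 (2.5% DMSO) for 120 min at 25 °C. After an EDTA stop, phosphotyrosine was detected by Eu-PT66/SureLight APC-SA TR-FRET (665/620 nm, excitation 337 nm). Background wells received EDTA before enzyme.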

The target in assay [3] is Ba/F3-EGFR (L858R/T790M/C797S) (Homo sapiens, UniProt P00533, T790M/C797S/L858R, cells depend on it). The experiment in a line: Growth inhibition of cell line expressing EGFR (L858R/T790M/C797S). To be noted: read-out: BaF3_EGFR (L858R/T790M/C797S) IC50 value. The class given is cell-based, mouse.
Excerpt: as §1, §2, §3, §4, §5, §6, §7

Assay [4] concerns the target Ba/F3-EGFR (WT) (Homo sapiens, UniProt P00533). Kind of assay: Growth inhibition of cell line expressing wild-type EGFR. To be noted: read-out: BaF3_EGFR (WT) IC50 value. The class given is cell-based, mouse.
Excerpt: as §1, §2, §3, §4, §5, §6, §7

[5] abbreviates: Test Example 4, Table 13, same procedures as Test Example 2.
Where [6] appears, read: Test Example 1, Table 2, ATP 6 μM, 25° C., 120 minutes.
[7] abbreviates: Test Example 2, Table 7, culture 3 days, CellTiter-Glo.
Where [8] appears, read: Test Example 2, Table 7, culture 3 days, EGF 50 ng/ml, CellTiter-Glo.

SMILES strings stand for the structures. Like-named read-outs stand apart in the source and are kept apart here.

Experimental findings from patent US11786534B2 (TAIHO PHARMACEUTICAL CO., LTD., priority 2019, dated 2023) are described below.

T1 sequence (P00533 with tags, fused parts or gaps DEL746-750/T790M/C797S): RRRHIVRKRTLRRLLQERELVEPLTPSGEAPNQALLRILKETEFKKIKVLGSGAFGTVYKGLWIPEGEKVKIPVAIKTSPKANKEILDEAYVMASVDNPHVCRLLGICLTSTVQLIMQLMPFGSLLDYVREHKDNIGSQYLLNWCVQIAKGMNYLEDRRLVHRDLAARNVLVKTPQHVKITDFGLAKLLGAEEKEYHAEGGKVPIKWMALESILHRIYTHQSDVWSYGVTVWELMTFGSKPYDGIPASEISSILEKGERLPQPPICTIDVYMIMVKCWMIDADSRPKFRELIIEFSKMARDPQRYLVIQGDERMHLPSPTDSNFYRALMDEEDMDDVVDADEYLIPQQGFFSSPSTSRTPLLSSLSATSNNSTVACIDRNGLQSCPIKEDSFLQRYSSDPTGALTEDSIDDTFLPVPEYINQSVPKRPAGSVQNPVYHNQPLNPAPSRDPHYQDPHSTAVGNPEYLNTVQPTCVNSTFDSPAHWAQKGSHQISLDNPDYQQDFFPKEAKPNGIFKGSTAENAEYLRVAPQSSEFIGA
Chain of Ba/F3-EGFR (WT) (P00533 whole entry, change not shown): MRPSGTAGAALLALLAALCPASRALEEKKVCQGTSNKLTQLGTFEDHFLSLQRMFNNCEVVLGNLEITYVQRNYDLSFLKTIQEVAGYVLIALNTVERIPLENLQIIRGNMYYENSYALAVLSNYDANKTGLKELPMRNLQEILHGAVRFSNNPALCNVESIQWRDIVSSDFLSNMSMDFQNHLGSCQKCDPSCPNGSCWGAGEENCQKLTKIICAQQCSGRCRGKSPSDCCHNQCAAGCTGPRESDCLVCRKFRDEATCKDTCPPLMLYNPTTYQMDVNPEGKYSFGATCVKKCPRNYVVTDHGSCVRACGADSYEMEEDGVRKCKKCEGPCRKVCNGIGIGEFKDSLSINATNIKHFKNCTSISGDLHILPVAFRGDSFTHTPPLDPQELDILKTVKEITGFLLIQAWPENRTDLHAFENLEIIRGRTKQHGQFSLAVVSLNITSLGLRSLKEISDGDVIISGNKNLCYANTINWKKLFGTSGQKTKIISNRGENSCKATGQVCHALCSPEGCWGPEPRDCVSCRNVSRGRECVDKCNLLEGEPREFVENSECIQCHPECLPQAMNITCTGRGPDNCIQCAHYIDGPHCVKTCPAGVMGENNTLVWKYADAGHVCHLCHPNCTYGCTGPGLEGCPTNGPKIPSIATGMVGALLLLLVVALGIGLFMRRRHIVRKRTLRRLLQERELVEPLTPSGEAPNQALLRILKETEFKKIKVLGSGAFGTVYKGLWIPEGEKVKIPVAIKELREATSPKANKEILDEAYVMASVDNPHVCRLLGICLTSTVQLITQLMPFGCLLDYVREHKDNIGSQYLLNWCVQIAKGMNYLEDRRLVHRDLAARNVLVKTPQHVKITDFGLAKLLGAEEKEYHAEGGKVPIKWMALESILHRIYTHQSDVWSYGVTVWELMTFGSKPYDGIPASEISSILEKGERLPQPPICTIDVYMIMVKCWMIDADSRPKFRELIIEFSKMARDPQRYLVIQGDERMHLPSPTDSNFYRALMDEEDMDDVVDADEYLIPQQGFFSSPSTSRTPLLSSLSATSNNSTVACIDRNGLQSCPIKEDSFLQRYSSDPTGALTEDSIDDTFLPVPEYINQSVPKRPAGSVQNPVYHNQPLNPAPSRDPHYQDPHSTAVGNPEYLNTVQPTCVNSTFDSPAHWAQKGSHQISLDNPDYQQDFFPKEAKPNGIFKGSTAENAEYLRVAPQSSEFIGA
Chain of Ba/F3-EGFR (L858R/T790M/C797S) (P00533 whole entry T790M/C797S/L858R): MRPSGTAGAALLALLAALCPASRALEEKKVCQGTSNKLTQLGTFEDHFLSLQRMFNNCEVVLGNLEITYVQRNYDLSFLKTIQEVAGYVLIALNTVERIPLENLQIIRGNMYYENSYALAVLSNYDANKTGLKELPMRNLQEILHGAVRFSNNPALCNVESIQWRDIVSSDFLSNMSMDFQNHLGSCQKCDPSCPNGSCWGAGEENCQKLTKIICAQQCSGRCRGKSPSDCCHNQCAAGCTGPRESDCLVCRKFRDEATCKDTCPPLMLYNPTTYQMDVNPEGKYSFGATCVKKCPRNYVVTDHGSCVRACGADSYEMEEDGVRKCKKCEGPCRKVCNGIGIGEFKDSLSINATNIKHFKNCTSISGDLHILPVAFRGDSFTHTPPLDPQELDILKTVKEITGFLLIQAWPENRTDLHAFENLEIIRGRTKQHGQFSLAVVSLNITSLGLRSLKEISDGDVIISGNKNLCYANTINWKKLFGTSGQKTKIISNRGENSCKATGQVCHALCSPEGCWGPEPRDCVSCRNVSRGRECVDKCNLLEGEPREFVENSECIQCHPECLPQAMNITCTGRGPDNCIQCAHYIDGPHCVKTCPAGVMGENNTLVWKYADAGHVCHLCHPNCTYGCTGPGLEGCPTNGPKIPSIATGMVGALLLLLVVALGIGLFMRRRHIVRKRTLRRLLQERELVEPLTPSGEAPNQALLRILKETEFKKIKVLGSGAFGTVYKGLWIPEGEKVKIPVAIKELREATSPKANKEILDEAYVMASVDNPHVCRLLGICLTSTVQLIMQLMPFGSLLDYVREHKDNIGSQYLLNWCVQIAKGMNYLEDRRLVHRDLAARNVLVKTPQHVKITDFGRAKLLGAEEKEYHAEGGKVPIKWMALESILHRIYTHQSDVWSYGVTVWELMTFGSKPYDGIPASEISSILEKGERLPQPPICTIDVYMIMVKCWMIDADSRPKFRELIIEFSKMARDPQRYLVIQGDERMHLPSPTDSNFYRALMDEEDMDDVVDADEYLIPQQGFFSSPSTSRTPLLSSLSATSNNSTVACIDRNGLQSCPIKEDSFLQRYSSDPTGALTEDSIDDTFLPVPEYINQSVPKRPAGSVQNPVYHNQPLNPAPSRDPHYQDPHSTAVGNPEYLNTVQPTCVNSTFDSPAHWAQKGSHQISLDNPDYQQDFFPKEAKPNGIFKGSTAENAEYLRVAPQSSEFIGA
Chain of Ba/F3-EGFR (d746-750/T790M/C797S) (P00533 with tags, fused parts or gaps DEL746-750/T790M/C797S): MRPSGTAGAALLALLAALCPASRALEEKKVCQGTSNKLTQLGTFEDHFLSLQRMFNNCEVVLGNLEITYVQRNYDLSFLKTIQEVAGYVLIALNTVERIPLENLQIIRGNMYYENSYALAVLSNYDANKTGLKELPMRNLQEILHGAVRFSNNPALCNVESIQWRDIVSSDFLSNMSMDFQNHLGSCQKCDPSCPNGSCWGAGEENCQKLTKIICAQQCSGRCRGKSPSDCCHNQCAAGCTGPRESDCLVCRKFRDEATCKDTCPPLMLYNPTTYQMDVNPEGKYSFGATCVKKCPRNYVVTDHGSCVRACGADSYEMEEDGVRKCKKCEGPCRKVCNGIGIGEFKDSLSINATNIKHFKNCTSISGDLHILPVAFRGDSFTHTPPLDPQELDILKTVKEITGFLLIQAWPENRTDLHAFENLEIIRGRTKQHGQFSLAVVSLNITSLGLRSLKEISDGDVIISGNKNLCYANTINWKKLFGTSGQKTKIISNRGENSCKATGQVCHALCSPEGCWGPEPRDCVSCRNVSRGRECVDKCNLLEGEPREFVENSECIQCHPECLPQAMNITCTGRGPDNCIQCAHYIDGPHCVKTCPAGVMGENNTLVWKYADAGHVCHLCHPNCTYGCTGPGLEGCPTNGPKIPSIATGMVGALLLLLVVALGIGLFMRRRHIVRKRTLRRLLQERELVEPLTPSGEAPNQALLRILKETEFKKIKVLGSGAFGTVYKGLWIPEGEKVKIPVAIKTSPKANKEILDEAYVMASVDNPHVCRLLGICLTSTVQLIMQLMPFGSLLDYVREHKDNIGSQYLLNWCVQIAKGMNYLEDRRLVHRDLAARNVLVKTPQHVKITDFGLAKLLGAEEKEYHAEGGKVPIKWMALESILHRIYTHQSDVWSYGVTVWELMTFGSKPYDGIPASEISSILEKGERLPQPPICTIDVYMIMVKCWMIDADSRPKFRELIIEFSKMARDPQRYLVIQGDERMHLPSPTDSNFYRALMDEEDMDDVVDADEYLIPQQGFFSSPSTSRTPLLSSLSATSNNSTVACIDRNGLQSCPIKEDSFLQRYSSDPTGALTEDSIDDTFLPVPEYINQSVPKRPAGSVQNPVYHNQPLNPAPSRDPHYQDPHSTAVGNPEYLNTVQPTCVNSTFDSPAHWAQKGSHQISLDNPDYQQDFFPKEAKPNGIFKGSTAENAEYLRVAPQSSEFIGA

Consider `C#Cc1c(-c2cnc3ccccc3c2)c2c(N)ncnc2n1C12CCC(NC(=O)C(F)F)(CC1)C2` [Example 27, N-(4-(4-Amino-6-ethynyl-5-(quinolin-3-yl)-7H-pyrrolo[2,3-d]pyrimidin-7-yl)bicyclo-[2.2.1]heptan-1-yl)-2,2-difluoroacetamide], for which the results for the GI50 in assay [1] (setting [5]), in assay [3] (setting [5]) and in assay [4] (setting [5]) were 110 nM, 754 nM and over 2000 nM, respectively. Moreover, in assay [2] (setting [6]), the IC50 is under 0.3 nM.
Taken in the same sequence, the figures for `C#Cc1c(-c2cnc3ccccc3c2)c2c(N)ncnc2n1C12CCC(NC(=O)c3noc(C)n3)(CC1)C2` [Example 36, N-(4-(4-Amino-6-ethynyl-5-(quinolin-3-yl)-7H-pyrrolo[2,3-d]pyrimidin-7-yl)-bicyclo-[2.2.1]heptan-1-yl)-5-methyl-1,2,4-oxadiazole-3-carboxamide] were 59 nM, 448 nM, over 2000 nM and under 0.3 nM.
On to `C#Cc1c(-c2cnc3ccccc3c2)c2c(N)ncnc2n1C12CCC(NC(=O)c3cncc(F)c3)(CC1)C2` [Example 35, N-(4-(4-Amino-6-ethynyl-5-(quinolin-3-yl)-7H-pyrrolo[2,3-d]pyrimidin-7-yl)-bicyclo-[2.2.1]heptan-1-yl)-5-fluoronicotinamide], for which the GI50 in assay [1] (setting [5]) is 44 nM; in assay [3] (setting [5]) it was 348 nM; in assay [4] (setting [5]), 2960 nM. For the same compound, in assay [2] (setting [6]), the IC50 is under 0.3 nM.
`C#Cc1c(-c2cnc3ccccc3c2)c2c(N)ncnc2n1C12CCC(NC(=O)c3cccnn3)(CC1)C2` [Example 49]: the GI50 in assay [1] (setting [7]) came out at 19 nM; in assay [3] (setting [7]) it was 290 nM; in assay [4] (setting [8]) it was 3070 nM. This compound also came in with an IC50 in assay [2] (setting [6]) of under 0.3 nM.
For `C#Cc1c(-c2cnc3ccccc3c2)c2c(N)ncnc2n1C12CCC(NC(=O)c3nccn3C)(CC1)C2` [Example 23, N-(4-(4-Amino-6-ethynyl-5-(quinolin-3-yl)-7H-pyrrolo[2,3-d]pyrimidin-7-yl)bicyclo-[2.2.1]heptan-1-yl)-1-methyl-1H-imidazole-2-carboxamide], the GI50 amounted to 31 nM in assay [1] (setting [5]), 649 nM in assay [3] (setting [5]) and 3190 nM in assay [4] (setting [5]). Also, in assay [2] (setting [6]), the IC50 was under 0.3 nM.
Taken in the same sequence, the figures for `C#Cc1c(-c2cnc3ccccc3c2)c2c(N)ncnc2n1C12CCC(NC(=O)c3ccno3)(CC1)C2` [Example 44] were 30 nM, 268 nM, 2260 nM and under 0.3 nM.
On to `C#Cc1c(-c2cnc3ccccc3c2)c2c(N)ncnc2n1C12CCC(NC(=O)c3ccc4ncnn4c3)(CC1)C2` [Example 16, N-(4-(4-Amino-6-ethynyl-5-(quinolin-3-yl)-7H-pyrrolo[2,3-d]pyrimidin-7-yl)bicyclo-[2.2.1]heptan-1-yl)-[1.2.4]triazolo[1,5-a]pyrimidin-6-carboxamide], for which the values for the GI50 in assay [1] (setting [5]), in assay [3] (setting [5]) and in assay [4] (setting [5]) were 32 nM, 283 nM and 1920 nM, respectively. The IC50 in assay [2] (setting [6]) is under 0.3 nM.
`C#Cc1c(-c2cnc3ccccc3c2)c2c(N)ncnc2n1[C@@H]1CCN(C(=O)C=C)C1` [Comparative Example B, (R)-1-(3-(4-Amino-6-ethynyl-5-(quinolin-3-yl)-7H-pyrrolo[2,3-d]pyrimidin-7-yl) -pyrrolidin-1-yl)-prop-2-en-1-one, reference compound]: the GI50 in assay [1] (setting [7]) amounted to 1080 nM; in assay [3] (setting [7]), 3590 nM; in assay [4] (setting [8]), 1050 nM. The same compound displayed an IC50 in assay [2] (setting [6]) of 26 nM.
With `C#Cc1c(-c2cnc3ccccc3c2)c2c(N)ncnc2n1C12CCC(NC(=O)c3ccncc3)(CC1)C2` [Example 43], the GI50 was found to be 57 nM in assay [1] (setting [7]), 417 nM in assay [3] (setting [7]) and 3290 nM in assay [4] (setting [8]). Further, in assay [2] (setting [6]), the IC50 is under 0.3 nM.
Consider `C#Cc1c(-c2cnc3ccccc3c2)c2c(N)ncnc2n1C12CCC(NC(=O)c3cnns3)(CC1)C2` [Example 18, N-(4-(4-Amino-6-ethynyl-5-(quinolin-3-yl)-7H-pyrrolo[2,3-d]pyrimidin-7-yl)bicyclo-[2.2.1]heptan-1-yl)-1,2,3-thiadiazole-5-carboxamide], for which the GI50 turned out to be 124 nM in assay [1] (setting [5]), 1270 nM in assay [3] (setting [5]) and 2480 nM in assay [4] (setting [5]). The compound also came in with an IC50 in assay [2] (setting [6]) of under 0.3 nM.
Take `C#Cc1c(-c2cnc3ccccc3c2)c2c(N)ncnc2n1C12CCC(NC(=O)c3ccccc3)(CC1)C2` [Example 1, N-(4-(4-Amino-6-ethynyl-5-(quinolin-3-yl)-7H-pyrrolo[2,3-d]pyrimidin-7-yl)bicyclo-[2.2.1]heptan-1-yl)benzamide]: the GI50 in assay [1] (setting [5]) amounted to 98 nM; in assay [3] (setting [5]), 887 nM; in assay [4] (setting [5]), 3490 nM. The same compound gave an IC50 in assay [2] (setting [6]) of under 0.3 nM.
In the case of `C#Cc1c(-c2cnc3ccccc3c2)c2c(N)ncnc2n1C12CCC(CNC(=O)c3cnc(C)cn3)(CC1)C2` [Example 14, N-((4-(4-Amino-6-ethynyl-5-(quinolin-3-yl)-7H-pyrrolo[2,3-d]pyrimidin-7-yl)bicyclo-[2.2.1]heptan-1-yl)methyl)-5-methylpyrazine-2-carboxamide], the figures for the GI50 in assay [1] (setting [7]), in assay [3] (setting [7]) and in assay [4] (setting [8]) were 204 nM, 952 nM and 3500 nM, respectively. The compound further came in with an IC50 in assay [2] (setting [6]) of under 0.3 nM.
As for `C#Cc1c(-c2cnc3ccccc3c2)c2c(N)ncnc2n1C12CCC(NC(=O)[C@@H]3CN(C)CCO3)(CC1)C2` [Example 63, (S)-N-(4-(4-Amino-6-ethynyl-5-(quinolin-3-yl)-7H-pyrrolo[2,3-d]pyrimidin-7-yl) -bicyclo[2.2.1]heptan-1-yl)-4-methylmorpholine-2-carboxamide], the GI50 in assay [1] (setting [5]) is 73 nM; in assay [3] (setting [5]) it was 672 nM; in assay [4] (setting [5]), 2990 nM. In assay [2] (Test Example 3, Table 8; same procedures as 1) in Test Example 1), the 50% inhibitory concentration (IC50) is under 0.3 nM.
As to `C#Cc1c(-c2cnc3ccccc3c2)c2c(N)ncnc2n1C12CCC(NC(=O)c3cnc(C)cn3)(CC1)C2` [Example 37, N-(4-(4-Amino-6-ethynyl-5-(quinolin-3-yl)-7H-pyrrolo[2,3-d]pyrimidin-7-yl)-bicyclo-[2.2.1]heptan-1-yl)-5-methylpyrazine-2-carboxamide], the GI50 came to 21 nM in assay [1] (setting [7]), 270 nM in assay [3] (setting [7]) and 2970 nM in assay [4] (setting [8]). Also, the IC50 in assay [2] (setting [6]) was under 0.3 nM.
For the compound `C#Cc1c(-c2cnc3ccccc3c2)c2c(N)ncnc2n1C12CCC(CNC(=O)c3ccnn3C)(CC1)C2` [Example 13, N-((4-(4-Amino-6-ethynyl-5-(quinolin-3-yl)-7H-pyrrolo[2,3-d]pyrimidin-7-yl)bicyclo-[2.2.1]heptan-1-yl)methyl)-1-methyl-1H-pyrazole-5-carboxamide], the GI50 came out at 239 nM in assay [1] (setting [7]), 910 nM in assay [3] (setting [7]) and 3600 nM in assay [4] (setting [8]). In addition, in assay [2] (setting [6]), the IC50 was under 0.3 nM.

By IC50 is commonly meant the concentration that gives 50% inhibition. Read a high IC50 as weaker potency.
